Laboratory results as given in patent US20120015886A1, “METHOD FOR PREPARING RECOMBINANT PEPTIDE FROM SPIDER VENOM AND METHOD FOR RELIEVING PAIN” (priority 2005, published 2012).
Where no end group is shown, it is not given here.

Columns and labels:
[1] = test system: carrageenan-treated mice; assay: Weight-bearing test; assay type: in vivo
Procedure: In order to monitor behavioral changes brought by complex mechanical stimuli, the present inventors conducted the weight-bearing test, in which complex mechanical pain is assessed as the stimulus is varied. In detail, one the hind limbs of a mouse was injected with pain inducers such as carrageenan and formalin to incur pain. In such a case, the mouse puts less weight in the injected hind limb, but puts more weight than usual in the other, normal hind limb and this difference in weight is recorded as a measure of pain.
More specifically, the principles behind this test are as follows. When a mouse receives an injection of pain inducers in only one of the hind paws, it puts more weight than usual in the other hind paw. This difference in the weight balance serves as a measure of the mouse's pain. In the present example, such weight difference per unit body weight of the mouse was reported for comparison.
Two groups of 8 mice each received an intraplantar injection of either 2% carrageenan (50 μL) or for the negative control group, physiological saline solution (100 μL) at only one of their hind paws. To the carrageenan-treated mice, either GsMTx4 (40 μg/150 g body weight) or for the positive control group, morphine (10 mg/150 g) was intraperitoneally and their weight balances were monitored 1 to 6 hours later.

[2] = test system: carrageenan-treated mice; assay: von Frey test, mechanical allodynia heightened by carrageenan; assay type: in vivo
Description: Mechanical stimuli were applied in an area in the paw between the thumb and index finger.

[3] = test system: carrageenan-treated mice; assay: Randall-Selitto test, mechanical hyperalgesia heightened by carrageenan; assay type: in vivo
Procedure: In order to probe mechanical hyperalgesia in mice, the present inventors conducted the Randall-Selitto test, in which severe mechanical stress is applied to inflict pain. In detail, force is applied to a sharp-ended rod in touch with a hind paw of a mouse. As a measure of pain sensitivity, the weight of the rod at the pain threshold is recorded.
(§1) A cone-shaped rod was placed at one of the hind paws of mice treated with GsMTx4 and force was applied. […] A pain response was characterized as either raising the hind paw, rolling up the tail, or making a shrill sound.
(§2) Two groups of 8 mice each were injected with either physiological saline solution or the pain inducer carrageenan (2% solution, 50 μL, intraplantar) at their hind paws. After the first injection, either GsMTx4 (40 μg/150 g body weight) or for the positive control group, morphine (1.5 mg/150 g) was intraperitoneally injected to these mice. The Randall-Selitto test was carried out 4 hours later. Mechanical stimuli were applied in an area in the paw between the thumb and index finger. Threshold weight data were represented as percentage values against the threshold weight for mice treated saline solution (negative control).

[4] = test system: mice with neuropathic pains; assay: von Frey test under a neuropathic pain model; assay type: in vivo; conditions: tibial and sural nerves cut; 50 μg/200 g body weight; 4 hours after injection; versus saline control
Description: Neuropathic pain was induced to mice according to the method reported by Lee and others (Lee, B. et al., Neuroreport 11:657˜661, 2000). Mice were put under anesthesia and their skin was excised in the thighs to expose the tibial, sural and common peroneal nerves. Out of these, the tibial and sural nerves were bound together and cut off. Mice were then allowed to recuperate for 6 days after the operation and the monitoring for the presence of neuropathic pain began 1 week after the operation. The analgesic effect of GsMTx4 on those mice suffering from neuropathic pain was tested by the von Frey test as in Example 9.
Mice with neuropathic pains were divided into two groups of 9. To the first group, GsMTx (50 μg/200 g body weight) was injected and to the second group, physiological saline solution for control. 4 hours after the injection of GsMTx4, mechanical stimuli were applied to these mice with von Frey filaments. The width of the von Frey filament that evoked a nociceptic (flexor) reflex was recorded before and after the surgery, and the data was expressed as the percentage of the latter width in relation to the former.

[5] = test system: mice that did not receive carrageenan; assay: von Frey test, mechanical low-pressure stimuli, no pain inducer; assay type: in vivo; conditions: mice without carrageenan; compared to intraplantar saline and intraperitoneal morphine groups
Procedure: The present inventors conducted the von Frey test in order to see whether GsMTx4 of this invention has an analgesic effect against rubbing or other weak mechanical stimuli inside a living body. When a pain inducer is administered only to one of the hind paws of a mouse, the affected paw becomes sensitive and feels pain from even small mechanical stimuli. The von Frey test involves measuring the weight difference at the pain threshold between the two hind paws as one varies the width of the von Frey hair involved in giving the stimuli (http://www.2biol.com/2biol analgesia.htm; Pitcher, G. M. et al., Journal of Neuroscience Methods 87(2):185˜193, 1999).
Two groups of 8 mice each received a 50-μL intraplantar injection of either physiological saline solution or 2% carrageenan at only one of their hind paws. After the first injection, either GsMTx4 (40 μg/150 g body weight) or for the positive control group, morphine (10 mg/150 g) was intraperitoneally injected to these mice. These mice were rubbed with von Frey hairs a half to 4 hours later.
Mechanical stimuli were applied in an area in the paw between the thumb and index finger. Threshold weight data were represented as percentages against the threshold weight for mice treated saline solution (negative control).

[6] = test system: stretch-activated channels (SACs); conditions: administered to the hearts of rabbits after atrial fibrillation was induced with high level stress; cited from earlier work
[7] = test system: cell swelling; conditions: Sachs et al., J. Gen. Physiol. 2000; cited from earlier work
[8] = test system: mice that did not receive carrageenan; assay: Randall-Selitto test, mechanical high-pressure stimuli, no pain inducer; assay type: in vivo; conditions: mice without carrageenan; compared to intraplantar saline and intraperitoneal morphine groups
Procedure: as §1, §2

[9] = test system: mice; assay: Tail flick test, temperature stimuli; assay type: in vivo; conditions: no pain inducer; GsMTx4 40 μg/150 g intraperitoneal; compared to morphine 10 mg/150 g; 30 to 4 hours later
Description: The present inventors looked into GsMTx4 for its possible analgesic activity on pain from temperature stimuli. Mice were irradiated with infrared in their tails and monitored for their endurance against heat (tail flick test). The analgesic effect of GsMTx4 was examined by comparing data from a group of mice suffering from induced pain with those from a non-induced group (Pitcher G. M. et al., Journal of Neuroscience Methods, 87(2):185˜193, 1999).
Three groups of 8 mice each respectively received an intraperitoneal injection of either physiological saline solution (100 μL) as the negative control, or morphine (10 mg/150 g body weight) as the positive control, or GsMTx4 (40 μg/150 g). They were then subject to the tail flick test 30 to 4 hours later.

[10] = carrageenan-treated mice, GsMTx4 40 μg/150 g intraperitoneal

Compound | weight difference between hind limbs ([1]; mouse, in vivo, ip) | hypersensitivity (pain threshold for hair force) ([2]; mouse, in vivo, ip) | pain sensitivity threshold ([3]; mouse, in vivo, ip) | reflex threshold against mechanical stimuli (von Frey filaments) [4] | analgesic effect against mechanical low pressure [5] | weight difference between hind limbs ([1]; 2% carrageenan 50 μL intraplantar, GsMTx4 40 μg/150 g or morphine 10 mg/150 g intraperitoneally, 1 to 6 hours later) | hypersensitivity (pain threshold for hair force) ([2]; 2% carrageenan 50 μL intraplantar, intraperitoneal GsMTx4 40 μg/150 g or morphine 10 mg/150 g, a half to 4 hours later) | pain sensitivity threshold ([3]; 2% carrageenan 50 μL intraplantar, intraperitoneal GsMTx4 40 μg/150 g body weight or morphine 1.5 mg/150 g) | time after injection at which the analgesic effect occurred [3, 10] [min] | time the analgesic effect lasted [3, 10] | effect on atrial fibrillation [6] | effect on cell swelling associated with congestive heart failure [7] | analgesic effect against mechanical high pressure [8] | analgesic activity against temperature stimuli [9]
CN1CC[C@]23c4c5ccc(O)c4O[C@H]2[C@@H](O)C=C[C@H]3[C@H]1C5 [morphine, reference compound] | reverted back to a low value | reduce hypersensitivity | increased back substantially | – | – | – | – | – | – | – | – | – | – | –
GsMTx4: Spider toxin peptide of 34 amino acids (SEQ. ID NO 1), 3 disulfide bonds, mechanosensitive ion channel inhibitor; produced recombinantly in Pichia pastoris (GCLEFWWKCNPNDDKCCRPKLKCSKLFKLCNFSF; disulfide (positions not given here); not fully specified (bridges); ends not checked; listed as Grammostola spatulata) | – | – | – | elevation of the reflex threshold | observed, albeit weakly | reverted back to a low value | reduce hypersensitivity | increased back substantially | 30 | approximately 4 hours | relieve symptoms of atrial fibrillation | prevent cell swelling | evident | either negligible or no analgesic activity
